Reference: patent US20260345584A1, “METHODS AND PHARMACEUTICAL COMPOSITIONS FOR TREATING CHEMOTHERAPY-INDUCED PERIPHERAL NEUROPATHY WITH EG5 INHIBITORS” (UNIVERSITY OF MIAMI, priority 2023, published 2026)

What was measured:
[1] = test system: mouse DRG neurons; settings: cultured mouse DRG neurons (Haque et al., 2004); cited from earlier work
[2] = test system: CIPN caused by bortezomib; settings: mice (Bobylev et al., 2017); cited from earlier work
[3] = test system: microtubule detyrosination in keratinocytes; experiment: GluTub immunofluorescence of detyrosinated microtubules in zebrafish caudal fin keratinocytes; format: in vivo; settings: 96 hr
Experimental: (§1) The stock solution was divided into 20-30 μl aliquots and stored at −20 °C until use (maximal 6 months). Immediately prior to use, paclitaxel was diluted in Ringer's solution and added to dechorionated larval zebrafish. The larval fish were placed individually or in small groups into wells of a 12-well plate containing the treatment solutions. The control group was 0.05% DMSO. Plates were incubated at 28.5 °C and protected from light. Treatment lengths are indicated in the Drawings, Description of the Drawings, and Examples where appropriate. […] EMD534085, Eg5 inhibitor (MedChemExpress, Cat. No. HY-15000) was diluted in 100% DMSO to make a 10 mM stock solution and stored at −20 °C. […] The solutions were exchanged every 48 hr.
Larval fish were transferred into […] glass vials and fixed in 4% paraformaldehyde (PFA)/1× Phosphate-buffered saline (PBS) for 1.5 hr at room temperature, with gentle rocking. Following a 5-minute incubation in 1×PBS+0.1% Tween-20 (PBST), zebrafish were permeabilized in 1×PBS+0.1% Triton X-100 for 10-30 min. Larval fish were transferred into 2 ml reaction tubes and incubated in blocking buffer (1×PBST+5% BSA) for 30 min at room temperature, with rocking. Larval fish were further incubated overnight in antibody solution (Millipore Sigma, Cat. No. AB3201, 1:300 rabbit anti-GluTub; Sigma, Cat No. T6793, 1:500 mouse anti-acetylated tubulin) in blocking buffer at 4 °C, on a rotator. The next morning, larval fish were transferred into 6-well plates and washed 4×15 min in 1×PBST at room temperature, with rocking. This was followed by incubation in secondary antibody (goat anti-rabbit Cy5, Abcam, Cat. No. ab97077; goat anti-mouse Cy3, Abcam, Cat. No. ab97035) and 1:10,000 Hoechst 33342 (ThermoFisher Scientific, Cat. No. 62249, 20 mM solution) in blocking buffer for 1 hr at room temperature, with rocking. Fish were covered to avoid bleaching. […]
Fluorescence intensities were measured using the Imaris MATLAB plugin or Fiji. A line was typically placed over the region of interest and the fluorescence automatically quantified. The values were normalized to nuclear (Hoechst33342) fluorescence intensities within the same fish and region to obtain an intensity ratio.
Stabilized microtubules undergo a modification whereby the terminal tyrosine residue was removed, leading to detyrosination (dMT) (Roll-Mecak et al., 2020, Developmental cell 54: 7-20), which was associated with particularly long-term stabilized microtubule populations (Khawaja et al., 1988, The Journal of cell biology 106: 141-149). Exposure of the penultimate glutamate residue can be detected using a GluTub antibody. […]

[4] = test system: cutaneous sensory axons; experiment: Axon branch number in caudal fin (acetylated tubulin staining); format: in vivo, zebrafish
Experimental: as §1
(§2) Larval fish were transferred into […] glass vials and fixed in 4% paraformaldehyde (PFA)/1× Phosphate-buffered saline (PBS) for 1.5 hr at room temperature, with gentle rocking. Following a 5-minute incubation in 1×PBS+0.1% Tween-20 (PBST), zebrafish were permeabilized in 1×PBS+0.1% Triton X-100 for 10-30 min. Larval fish were transferred into 2 ml reaction tubes and incubated in blocking buffer (1×PBST+5% BSA) for 30 min at room temperature, with rocking. Larval fish were further incubated overnight in antibody solution (Millipore Sigma, Cat. No. AB3201, 1:300 rabbit anti-GluTub; Sigma, Cat No. T6793, 1:500 mouse anti-acetylated tubulin) in blocking buffer at 4 °C, on a rotator. The next morning, larval fish were transferred into 6-well plates and washed 4×15 min in 1×PBST at room temperature, with rocking. This was followed by incubation in secondary antibody (goat anti-rabbit Cy5, Abcam, Cat. No. ab97077; goat anti-mouse Cy3, Abcam, Cat. No. ab97035) and 1:10,000 Hoechst 33342 (ThermoFisher Scientific, Cat. No. 62249, 20 mM solution) in blocking buffer for 1 hr at room temperature, with rocking. Fish were covered to avoid bleaching. Fish were washed for 4×15 min in 1×PBST at room temperature, with rocking, and immediately mounted for imaging on glass bottom petri dishes (Spectrum Laboratory Products, Cat. No. 750-10403-UE) using 1% agarose (Thermo Fisher Scientific, Cat. No. 16520050). A 1:200 dilution was used for mouse alpha-tubulin antibody (Proteintech, Cat. No. 66031-1) and a 1:1,000 dilution of donkey anti-mouse IgG Alexa488 (ThermoFisher Scientific, Cat. No. A-21202) for secondary detection. For Nox1 immunostaining, a 1:300 dilution of primary antibody (Anti-NOX1 Rabbit Polyclonal Antibody, Avantar, Cat. No. 102164-796) and a 1:1,000 dilution of secondary goat anti-rabbit Cy2 (Abcam, Cat. No. ab6940) antibody was used. Eg5 antibody (Abcam, Cat. No. 61199) was used at a 1:100 and secondary goat anti-rabbit Cy2 (Abcam, Cat. No. ab6940) at 1:1,000 dilution.
Axon branch number quantifications were performed by drawing a 50 μm line across the dorsal, medial, and ventral caudal fin edge region at a distance of 100 μm parallel to the fin edge (which was determined to be the most reliable region to quantify distal branch numbers). Axons traversing this line were counted and averaged per treatment group. Axonal fluorescence measurements were taken using the Imaris Spots function by manually placing spots along the axon and using the fluorescence intensity profile measurements MatLab tool.
Stretching was performed after 96 hr treatment, followed by 2 hr post-stretch fixation, and staining for detection of acetylated tubulin in axons.
To further validate Eg5 as the pharmacological target of EMD534085 in axon regeneration, zebrafish injected with kif11 CRISPR oligo were also analyzed.

[5] = test system: caudal fin keratinocytes (dfMTs); experiment: dfMT formation (detyrosinated fasciculated looped microtubules) in zebrafish caudal fin keratinocytes; format: in vivo
Experimental: as §1, §2
CRISPR oligos targeting kif11 were designed using the IDT CRISPR design tool (https://www.idtdna.com/site/order/designtool/index/CRISPR_CUSTOM). The oligo (5′-[…] (SEQ ID NO: 21) was designed to anneal within exon 5 of 23 exons total in zebrafish kif11 with expected mutations ~ position 270 bp in the sequenced region using the following primers for PCR amplification: Fwd 5′-[…]-3′ (SEQ ID NO: 22) and Rev 5′-[…]-3′ (SEQ ID NO: 23). The forward primer was used for sequencing and yielded deletions in transiently injected embryos, as shown in example below in which single zebrafish were sequenced (FIG. 10).
The CRISPR oligo was injected using the Alt-R system (IDT, https://www.idtdna.com/pages/technology/crispr/crispr-genome-editing/Alt-R-systems/cas9), which has provided highly reliable and efficient zebrafish knockout results as used herein. The IDT-recommended protocol (below) was used for CRISPR oligo preparations. Fertilized eggs were injected ~15 minutes post fertilization with CRISPR oligos to ensure maximal efficiency.
Cell counting in the caudal fin was performed in three 100 μm^2 boxes in the dorsal, medial and ventral caudal fin (~100 μm from the edge). […]

[6] = test system: Eg5; experiment: Eg5 immunofluorescence in zebrafish caudal fin; format: in vivo; settings: transient kif11 CRISPR, exon 5
Experimental: as §1
Larval fish were transferred into […] glass vials and fixed in 4% paraformaldehyde (PFA)/1× Phosphate-buffered saline (PBS) for 1.5 hr at room temperature, with gentle rocking. Following a 5-minute incubation in 1×PBS+0.1% Tween-20 (PBST), zebrafish were permeabilized in 1×PBS+0.1% Triton X-100 for 10-30 min. Larval fish were transferred into 2 ml reaction tubes and incubated in blocking buffer (1×PBST+5% BSA) for 30 min at room temperature, with rocking. […]

Compound	neurite outgrowth [1]	effect on CIPN caused by bortezomib [2]	normalized detyrosination fluorescence intensity ([3]; kif11 CRISPR + paclitaxel)	normalized detyrosination fluorescence intensity ([3]; kif11 CRISPR+vehicle)	axon branch number ([4]; kif11-CRISPR+22 μM paclitaxel) [branches/50 μm]	axon branch number ([4]; kif11-CRISPR+vehicle) [branches/50 μm]	number of keratinocytes per animal with dfMTs ([5]; kif11 CRISPR+22 μM paclitaxel)	percent animals with dfMTs ([5]; kif11 CRISPR+22 μM paclitaxel) [%]	number of keratinocytes per animal with dfMTs ([5]; kif11 CRISPR+vehicle)	percent animals with dfMTs ([5]; kif11 CRISPR+vehicle) [%]	Eg5 protein expression [6]
CCOC(=O)C1=C(C)NC(=S)NC1c1cccc(O)c1 (centres unmarked) [monastrol]	promotes neurite outgrowth	shown to alleviate CIPN caused by bortezomib									
kif11 CRISPR: CRISPR oligo (5′-AGGTGACCGATCACCCAATG (SEQ ID NO: 21)) targeting exon 5 of zebrafish kif11, injected as Cas9 ribonucleoprotein (injected as Cas9 ribonucleoprotein, chemistry not given here)			0.85±0.11	1.12±0.2	12.83±0.96	12.08±0.68	0.29±0.16	25	0±0	0	eliminated Eg5 protein expression
